Measured values: US20210212937A1, “GLUCONO DELTA-LACTONE FOR TREATMENT OF VAGINAL FUNGAL INFECTIONS” (Gedea Biotech AB, priority 2016, published 2021)

Tests used:
[1] = tested on: Candida albicans; test: Biofilm formation of Candida albicans at different pH (crystal violet); assay type: cell-based
Experimental: The biofilm was measured after 24 h and the staining was performed with crystal violet.
(§1) Yeast strains were grown at 37° C. in complete medium YPD (0.5% (weight/volume) yeast extract, 1% (weight/volume) peptone, 2% (weight/volume) glucose) or minimal medium consisting of YNB (yeast nitrogen base without amino acids and ammonium sulphate, FORMEDIUM™, CYN0505) supplemented with 0.5% (weight/volume) ammonium sulphate, 0.2% (weight/volume) glucose and 100 mM L-proline. If needed 2% (weight/volume) agar was used to solidify media. The liquid minimal medium (YNB (yeast nitrogen base without amino acids and ammonium sulphate, FORMEDIUM™, CYN0505) supplemented with 0.5% ammonium sulphate, 0.2% (weight/volume) glucose and 100 mM L-proline) was used for biofilm assay (biofilm medium).
Biofilm was measured in liquid culture as described [K. Scherz et al., G3 (Bethesda), 2014, 4, 1671-1680. I. Serrano-Fujarte et al. Biomed Res Int. 2015; 2015:783639] with some modifications. […] At defined time points crystal violet (HT901-8FOZ; Sigma Aldrich) was added to the media at the final concentration 0.05% In addition, total biomass was measured. […] Total biomass and crystal violet biofilm staining measurements were performed at OD560 with FLUOstar OPTIMA plate reader, BMG LABTECH. […]

[2] = tested on: Candida albicans; test: Biofilm formation in a model of in vivo conditions using GDA pellet; assay type: cell-based; settings: C. albicans
Experimental: as §1
(§2) Biofilm was measured in liquid culture as described [K. Scherz et al., G3 (Bethesda), 2014, 4, 1671-1680. I. Serrano-Fujarte et al. Biomed Res Int. 2015; 2015:783639] with some modifications. Prior the biofilm assay, yeast cultures were grown in liquid YPD medium for 24 hours until stationary phase cells were then pelleted by centrifugation (1699×g), washed with sterile water and the cells were further inoculated into test biofilm medium (YNB (yeast nitrogen base without amino acids and ammonium sulphate) supplemented with 0.5% ammonium sulphate, 0.2% glucose and 100 mM L-proline pH7.0) at final concentration of 0.2 OD600/ml and incubated in 96-well flat-bottom polystyrene microtiter plates (Sigma Aldrich, Corning® Costar® culture plates, CLS3596-50EA) for 72 hours at 37° C. thermostat. At defined time points crystal violet (HT901-8FOZ; Sigma Aldrich) was added to the media at the final concentration 0.05% In addition, total biomass was measured. […] Total biomass and crystal violet biofilm staining measurements were performed at OD560 with FLUOstar OPTIMA plate reader, BMG LABTECH. […]
(§3) Samples (4 mL) were taken at fixed time points (1, 2, 3, 4, 5, 6 and 24 h) and new buffer solution (4 mL) was added. The samples were diluted 50 times with biofilm medium (vide supra) and the amount of biofilm formation was measured after 24 h as described above. […]

[3] = tested on: Candida glabrata; test: as above; assay type: cell-based; settings: C. glabrata; GDA released from pellet (2.5 g) in pH 3.71 buffer, samples 1-24 h, diluted 50 times
Experimental: as §1, §2, §3

[4] = tested on: C. albicans; test: Viability of mature biofilm, XTT staining; assay type: cell-based, Candida albicans
Experimental: (§4) XXT is a colorimetric assay for quantification of cellular viability, and cytotoxicity. The assay is based on the cleavage of the tetrazolium salt XTT, a conversion that only occurs in viable cells. […] Then the cells were washed 2 times with PBS, after which the XTT reaction mixture was added. After 30 min the optical density measured at 485 nm.

[5] = tested on: C. glabrata; test: Viability of mature biofilm, XTT staining; assay type: cell-based, Candida glabrata; settings: 24 h of incubation
Experimental: as §4

[6] = tested on: C. albicans; test: Cell survival of mature biofilm, serial dilution plating on YPD; assay type: cell-based, Candida albicans; settings: 0.5 g/ml, 5 h, 37° C.
Experimental: (§5) The plated cells were incubated for 24 h at 37° C. and visually analyzed. The cells from the mature biofilm treated with water were used as a control. […] At the concentrations of 0.2 and 0.5 g/ml after 5 h of incubation the cell viability was decreased by about 100 times for both C. albicans and C. glabrata.

[7] = tested on: C. glabrata; test: as above; assay type: cell-based, Candida glabrata
Experimental: as §5

[8] = tested on: C. albicans; test: Microfluidics study of biofilm development (cell morphology); assay type: cell-based, Candida albicans; settings: 5 h, 1 h hydrolysate of GDA pellet diluted 50 times
Experimental: To monitor the C. albicans cell morphology we studied the biofilm development also using microscopy and microfluidics. After the yeast cells were inoculated, hyphae started to form within first hour of incubation in the biofilm medium (YNB supplemented with 100 mM proline and 0.2% glucose, pH7.0). […] A sample was taken after 1 h and diluted 50 times with biofilm medium and added to C. albicans.

[9] = tested on: Candida sp.; test: Viability on medium with calcofluor white versus osmotic stabilizer (cell wall damage); assay type: cell-based; settings: compared to medium with 0.5M sucrose and to untreated cells
[10] = tested on: Candida; test: Biofilm assay of hydroxylated carboxylic acids; assay type: cell-based
Excerpt: Given the importance of formation of biofilm in vulvovaginal Candida infections, a biofilm assay was deemed appropriate to evaluate the effect of hydroxylated carboxylic acid in targeting vulvovaginal Candida infections. […] As biofilm formation is dependent on both pH and the occurrence of alternative carbohydrate sources, it was not surprising to learn that lactic acid provides some effect on the formation of biofilm. Further, also some other hydroxylated C2-C5 carboxylic acids provided similar effects. Their effect is deemed to be related to their acidifying effect, as the stronger acid provided somewhat stronger effects.
Whereas the effect of other hydroxylated carboxylic acids seemingly only is due to their acidity (lowering the pH hampers the formation of biofilm), the effect of polyhydroxylated C6 carboxylic acids, e.g. gluconic acid, on formation of biofilm is pronounced already at pH<7. Thus, it seems that the effect of polyhydroxylated C6 carboxylic acid, e.g. gluconic acid, on formation of biofilm not merely is related to its acidity, but the compound itself, or more precisely the related δ-lactone thereof, also provides an effect.

O=C1O[C@H](CO)[C@@H](O)[C@H](O)[C@H]1O [GDA, glucono δ-lactone]
pH up to which strong effect on biofilm formation is shown ([1]; C. albicans, 24 h): at least 6
Effect on biofilm formation of C. albicans ([1]; minimal media pH 2.6-6.6, 24 h): strong effects
Amount of biofilm formation ([2]; GDA released from pellet (2.5 g) in pH 3.71 buffer, samples 1-24 h, diluted 50 times): significantly reduces
Duration of preventive effect of pellet ([2]; pellet 2.5 g in pH 3.71 buffer, 37° C.): ≥ 24 h
Amount of biofilm formation [3]: less pronounced
Viability of mature biofilm (XTT, OD 485 nm) ([4]; 24 h of incubation): less pronounced
Viability of mature biofilm (XTT, OD 485 nm) ([4]; 48 h): clearly seen
Viability of mature biofilm (XTT, OD 485 nm) [5]: strong decrease in viability
Decrease of cell viability [6]: about 100 times
Decrease of cell viability ([7]; C. glabrata mature biofilm, 0.5 g/ml, 5 h, 37° C.): about 100 times
Sensitivity of mature biofilm compared with C. albicans ([7]; C. glabrata, plating after incubation with GDA): more sensitive
Cell morphology [8]: most treated cells were planctonic
Viability on medium with calcofluor white [9]: lower viability

O=C(O)[C@H](O)[C@@H](O)[C@H](O)[C@H](O)CO [gluconic acid]
pH at which effect on formation of biofilm is already pronounced [10]: < 7
Decrease of formation of biofilm ([10]; compared to glyceric acid, xylonic acid and citric acid): superior effects

CC(O)C(=O)O (stereo not shown) [lactic acid]
Activity in biofilm assay ([10]; targeting vulvovaginal Candida infections): moderately active
